Tested on: beta cells
Test: Relative beta cell adhesion to biomaterial films in 96-well plates
Type: cell-based, rat
Conditions: attached cells 24 hours after plating and three washes, normalized to empty well; triplicate
Experimental: In a typical experiment, 1% stock solutions of the listed biomaterials first were prepared. Most materials dissolved in deionized water at neutral pH. […] Polymers normally soluble in water (e.g. dextran sulfate, alginate, etc.) can be cross-linked to form the film matrix. Approximately 25 μL of each stock solution was added to three individual wells in 96-well plates and left to evaporate or vacuum dried, thus, depositing a thin biomaterial film at the bottom of each well. […] Several proteins offered commercially to promote cell adhesion on well plates (e.g. fibronectin, laminin, etc.) were prescreened for cell adhesion as well.
A dilute suspension of beta cells was incubated in the 96-well plates overnight and washed three times to remove unbound beta cells. The beta cell suspension was homogeneous and equal aliquots per well were assumed to contain a similar quantity of beta cells. […] In general, mildly hydrophobic polymers performed well for adhering beta cells (Table 1).
Cell adhesion was determined by counting the number of attached cells 24 hours after plating on the biomaterial and following three washes. The counts were normalized to the number of cells that attach to a well bottom lacking a biomaterial (see empty well, control) using the following calculation: number of cells attached in the well of interest/number of cells in empty well. Each experiment was repeated in triplicate.

| Substance | Relative cell adhesion |
| --- | --- |
| Fibronectin | 3.7 ± 0.7 |
| Gelatin | 2.0 ± 0.2 |
| Laminin | 8.7 ± 0.6 |

From patent publication US8895048B2, “Templated islet cells and small islet cell clusters for diabetes treatment” (The University of Kansas, priority 2010, dated 2014)
